Converted amounts (≈) assume the structure as drawn. The source made the active and inactive calls. No cut-off for these calls is given here.
Key:
[1] = Brain to plasma partition coefficient, Kp of the compound in rat; type: ADME
Mus musculus [2] = assay: Antidepressant activity in CD-1 mouse assessed as reduction in immobility time administered ip 15 mins prior to test measured for 6 mins by tail suspension test; type: functional; conditions: CD-1, ip, read-out: MED
[3] = biological target: Endothelin receptor type B (Homo sapiens) (UniProt P24530); assay: Inhibition of human endothelin B receptor at 10 uM relative to control
[4] = biological target: Interleukin-1 receptor type 1 (Mus musculus) (UniProt P13504); assay: Inhibition of mouse IL1 receptor at 10 uM relative to control
[5] = biological target: 5-hydroxytryptamine receptor 1A (Homo sapiens) (UniProt P08908); assay: Inhibition of human 5-HT1A receptor at 10 uM relative to control
[6] = biological target: Androgen receptor (Rattus norvegicus) (UniProt P15207); assay: Inhibition of rat androgen receptor at 10 uM relative to control
Chain of Androgen receptor (Rattus norvegicus) (P15207 whole entry S389L): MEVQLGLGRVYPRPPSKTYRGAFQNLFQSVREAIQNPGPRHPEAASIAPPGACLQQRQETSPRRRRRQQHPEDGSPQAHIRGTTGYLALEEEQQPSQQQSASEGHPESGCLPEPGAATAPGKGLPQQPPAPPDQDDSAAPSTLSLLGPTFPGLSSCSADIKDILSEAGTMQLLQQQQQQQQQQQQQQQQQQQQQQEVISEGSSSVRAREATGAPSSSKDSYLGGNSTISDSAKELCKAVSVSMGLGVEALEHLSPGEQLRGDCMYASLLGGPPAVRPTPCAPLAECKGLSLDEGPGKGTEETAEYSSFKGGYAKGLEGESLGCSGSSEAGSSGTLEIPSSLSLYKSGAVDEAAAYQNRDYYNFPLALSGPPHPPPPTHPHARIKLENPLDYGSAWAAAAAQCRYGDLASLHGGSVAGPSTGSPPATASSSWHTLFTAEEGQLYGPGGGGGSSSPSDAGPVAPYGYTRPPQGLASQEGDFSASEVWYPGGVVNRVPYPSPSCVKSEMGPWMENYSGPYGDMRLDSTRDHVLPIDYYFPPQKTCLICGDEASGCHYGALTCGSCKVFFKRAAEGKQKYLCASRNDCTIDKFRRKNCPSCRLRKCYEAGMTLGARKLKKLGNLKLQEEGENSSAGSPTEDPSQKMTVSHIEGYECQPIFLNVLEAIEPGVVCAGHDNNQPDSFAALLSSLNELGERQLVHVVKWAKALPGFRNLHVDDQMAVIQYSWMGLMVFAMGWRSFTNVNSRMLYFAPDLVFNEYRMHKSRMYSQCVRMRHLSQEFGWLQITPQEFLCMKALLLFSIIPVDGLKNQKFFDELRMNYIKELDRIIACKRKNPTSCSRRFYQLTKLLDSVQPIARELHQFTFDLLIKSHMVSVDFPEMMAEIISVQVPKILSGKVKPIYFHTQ

[7] = biological target: Cannabinoid receptor 1 (Homo sapiens) (UniProt P21554); assay: Inhibition of human cannabinoid CB1 receptor at 10 uM relative to control
[8] = biological target: Histamine H1 receptor (Homo sapiens) (UniProt P35367); assay: Inhibition of human histamine H1 receptor at 10 uM relative to control
Chain of Histamine H1 receptor (Homo sapiens) (P35367 whole entry): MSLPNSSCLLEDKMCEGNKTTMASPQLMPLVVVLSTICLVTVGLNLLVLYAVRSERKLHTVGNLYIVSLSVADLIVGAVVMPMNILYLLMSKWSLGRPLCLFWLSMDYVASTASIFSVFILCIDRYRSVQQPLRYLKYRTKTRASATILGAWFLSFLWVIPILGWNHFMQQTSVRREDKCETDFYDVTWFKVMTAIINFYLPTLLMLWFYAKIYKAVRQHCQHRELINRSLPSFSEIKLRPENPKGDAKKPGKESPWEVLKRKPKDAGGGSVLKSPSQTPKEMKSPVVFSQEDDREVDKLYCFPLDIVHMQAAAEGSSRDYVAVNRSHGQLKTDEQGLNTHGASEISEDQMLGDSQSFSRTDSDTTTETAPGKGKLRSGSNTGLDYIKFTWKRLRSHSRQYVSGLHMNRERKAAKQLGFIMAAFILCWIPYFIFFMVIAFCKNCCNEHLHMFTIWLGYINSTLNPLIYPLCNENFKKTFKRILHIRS

Mus musculus [9] = assay: Antidepressant activity in CD-1 mouse assessed as reduction in immobility time at 3 mg/kg administered ip 15 mins prior to test measured for 6 mins by tail suspension test; type: functional, organism-based
Cytochrome P450 2D6 = Cytochrome P450 2D6 (Homo sapiens, UniProt P10635); assay: Inhibition of CYP2D6 in human liver microsomes using dextromethorphan as substrate after 15 mins in presence of NADPH by LC/MS/MS analysis; type: ADME
[10] = biological target: Metabotropic glutamate receptor 6 (Homo sapiens) (UniProt O15303); assay: Negative allosteric modulation of human mGlu6 receptor expressed in HEK/GIRK cells assessed as inhibition of glutamate induced-calcium mobilization preincubated for 2.3 mins followed by glutamate addition measured for 2.6 mins by Fluo-4 AM dye based fluorescence assay; type: functional, cell-based
Rattus norvegicus [11] = organism: Rattus norvegicus; assay: Inhibition of rat central GABA-A receptor flunitrazepam site at 10 uM relative to control
[12] = biological target: Histamine H2 receptor (Homo sapiens) (UniProt P25021); assay: Inhibition of human histamine H2 receptor at 10 uM relative to control
Mus musculus [13] = organism: Mus musculus; assay: Inhibition of mouse phorbol ester receptor at 10 uM relative to control
[14] = biological target: Neuropeptide Y receptor type 1 (Homo sapiens) (UniProt P25929); assay: Inhibition of human […] Y1 receptor at 10 uM relative to control
[15] = biological target: Sigma non-opioid intracellular receptor 1 (Homo sapiens) (UniProt Q99720); assay: Inhibition of human sigma 1 receptor at 10 uM relative to control
Chain of Sigma non-opioid intracellular receptor 1 (Homo sapiens) (Q99720 whole entry): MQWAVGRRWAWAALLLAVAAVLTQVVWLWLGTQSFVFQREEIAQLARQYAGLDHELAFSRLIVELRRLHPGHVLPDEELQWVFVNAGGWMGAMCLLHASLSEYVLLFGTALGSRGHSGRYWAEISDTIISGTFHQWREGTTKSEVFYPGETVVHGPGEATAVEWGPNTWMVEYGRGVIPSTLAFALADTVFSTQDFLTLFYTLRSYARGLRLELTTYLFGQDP

[16] = biological target: Kappa-type opioid receptor (Homo sapiens) (UniProt P41145); assay: Inhibition of human kappa opioid receptor at 10 uM relative to control
Chain of Kappa-type opioid receptor (Homo sapiens) (P41145 whole entry): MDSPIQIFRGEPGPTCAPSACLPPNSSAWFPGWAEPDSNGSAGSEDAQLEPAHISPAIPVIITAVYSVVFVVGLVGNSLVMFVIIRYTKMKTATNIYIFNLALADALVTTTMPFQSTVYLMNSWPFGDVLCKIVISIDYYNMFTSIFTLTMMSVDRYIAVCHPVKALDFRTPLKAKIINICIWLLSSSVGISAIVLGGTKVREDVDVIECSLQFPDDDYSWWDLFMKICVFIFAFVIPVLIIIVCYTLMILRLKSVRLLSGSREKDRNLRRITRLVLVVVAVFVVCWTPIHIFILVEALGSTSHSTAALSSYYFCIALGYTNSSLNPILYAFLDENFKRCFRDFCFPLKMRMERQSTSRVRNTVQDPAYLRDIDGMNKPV

[17] = biological target: Metabotropic glutamate receptor 2 (Rattus norvegicus, UniProt P31421); assay: (§1) Negative allosteric modulation of rat mGlu2 receptor expressed in HEK293 cells coexpressing Galpha15 assessed as inhibition of glutamate induced-calcium mobilization preincubated for 2.3 mins followed by glutamate addition measured for 1.9 mins by Fluo-4 AM dye based fluorescence assay; type: functional, cell-based
Chain of Metabotropic glutamate receptor 2 (P31421 whole entry, looked up): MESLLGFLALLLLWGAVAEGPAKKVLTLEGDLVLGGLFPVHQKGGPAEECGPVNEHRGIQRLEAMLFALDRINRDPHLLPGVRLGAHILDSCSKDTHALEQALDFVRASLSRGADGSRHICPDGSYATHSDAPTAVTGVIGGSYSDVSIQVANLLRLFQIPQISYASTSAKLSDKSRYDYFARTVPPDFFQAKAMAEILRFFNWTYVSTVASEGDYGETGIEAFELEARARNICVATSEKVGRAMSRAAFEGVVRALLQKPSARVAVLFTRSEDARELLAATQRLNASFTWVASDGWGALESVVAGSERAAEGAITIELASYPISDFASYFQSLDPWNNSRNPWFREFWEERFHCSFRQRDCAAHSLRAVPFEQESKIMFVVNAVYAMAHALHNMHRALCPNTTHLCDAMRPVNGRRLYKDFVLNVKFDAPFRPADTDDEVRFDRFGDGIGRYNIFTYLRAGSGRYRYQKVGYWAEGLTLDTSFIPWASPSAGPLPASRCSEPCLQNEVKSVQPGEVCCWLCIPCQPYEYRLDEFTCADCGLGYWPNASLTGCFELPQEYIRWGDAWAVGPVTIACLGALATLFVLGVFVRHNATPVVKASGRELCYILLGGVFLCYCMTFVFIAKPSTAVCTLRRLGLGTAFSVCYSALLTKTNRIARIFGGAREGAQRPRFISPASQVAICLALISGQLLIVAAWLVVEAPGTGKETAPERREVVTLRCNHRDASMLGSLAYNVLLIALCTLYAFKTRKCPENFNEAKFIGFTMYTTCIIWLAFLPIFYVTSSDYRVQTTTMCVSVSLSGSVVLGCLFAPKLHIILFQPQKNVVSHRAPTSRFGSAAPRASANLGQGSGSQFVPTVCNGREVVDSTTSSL

[18] = biological target: Acetylcholine receptor subunit alpha (Homo sapiens) (UniProt P02708); assay: Inhibition of human alpha1 nAChR bungarotoxin site at 10 uM relative to control
Cytochrome P450 2C9 = Cytochrome P450 2C9 (Homo sapiens, UniProt P11712); assay: Inhibition of CYP2C9 in human liver microsomes using diclofenac as substrate after 15 mins in presence of NADPH by LC/MS/MS analysis; type: ADME
Rattus norvegicus [19] = organism: Rattus norvegicus; assay: Inhibition of central rat I2 receptor imidazoline binding site at 10 uM relative to control
[20] = Brain to plasma partition coefficient, Kp of the compound in Harlan CD-1 mouse at 3 mg/kg, ip by LC/MS-MS analysis; type: ADME, organism-based
[21] = biological target: Endothelin-1 receptor (Homo sapiens) (UniProt P25101); assay: Inhibition of human endothelin A receptor at 10 uM relative to control
[22] = biological target: Alpha-1D adrenergic receptor (Homo sapiens) (UniProt P25100); assay: Inhibition of human adrenergic alpha 1D receptor at 10 uM relative to control
Chain of Alpha-1D adrenergic receptor (Homo sapiens) (P25100 whole entry): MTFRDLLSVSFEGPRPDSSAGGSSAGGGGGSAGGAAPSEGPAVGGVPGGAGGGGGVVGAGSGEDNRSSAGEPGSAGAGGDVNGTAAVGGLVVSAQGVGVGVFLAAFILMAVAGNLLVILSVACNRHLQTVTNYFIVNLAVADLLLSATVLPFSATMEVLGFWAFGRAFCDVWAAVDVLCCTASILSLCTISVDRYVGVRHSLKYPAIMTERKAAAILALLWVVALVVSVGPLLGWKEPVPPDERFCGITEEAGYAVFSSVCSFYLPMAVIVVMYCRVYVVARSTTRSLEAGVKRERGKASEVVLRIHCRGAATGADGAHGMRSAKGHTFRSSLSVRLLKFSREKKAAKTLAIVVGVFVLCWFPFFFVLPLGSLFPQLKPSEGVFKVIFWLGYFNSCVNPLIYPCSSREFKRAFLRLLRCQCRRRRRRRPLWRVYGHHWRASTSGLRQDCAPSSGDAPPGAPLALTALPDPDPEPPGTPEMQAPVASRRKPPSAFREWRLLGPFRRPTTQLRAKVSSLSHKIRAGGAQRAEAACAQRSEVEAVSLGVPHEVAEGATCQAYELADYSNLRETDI

[23] = biological target: B2 bradykinin receptor (Homo sapiens) (UniProt P30411); assay: Inhibition of human bradykinin B2 receptor at 10 uM relative to control
[24] = biological target: Substance-P receptor (Homo sapiens) (UniProt P25103); assay: Inhibition of human tachykinin NK1 receptor at 10 uM relative to control
Rattus norvegicus [25] = organism: Rattus norvegicus; assay: Inhibition of rat N-type calcium channel […] at 10 uM relative to control
Rattus norvegicus [26] = organism: Rattus norvegicus; assay: Inhibition of rat kainate glutamate receptor at 10 uM relative to control
[27] = biological target: Glutamate NMDA receptor (Rattus norvegicus) (UniProt P35439+Q00959+Q00960+Q00961+Q62645+Q8VHN2+Q9R1M7); assay: Inhibition of rat glutamate NMDA receptor phencyclidine binding site at 10 uM relative to control; type: protein-complex assay
[28] = biological target: Prostaglandin E2 receptor EP4 subtype (Homo sapiens) (UniProt P35408); assay: Inhibition of human EP4 receptor at 10 uM relative to control
Chain of Prostaglandin E2 receptor EP4 subtype (Homo sapiens) (P35408 whole entry): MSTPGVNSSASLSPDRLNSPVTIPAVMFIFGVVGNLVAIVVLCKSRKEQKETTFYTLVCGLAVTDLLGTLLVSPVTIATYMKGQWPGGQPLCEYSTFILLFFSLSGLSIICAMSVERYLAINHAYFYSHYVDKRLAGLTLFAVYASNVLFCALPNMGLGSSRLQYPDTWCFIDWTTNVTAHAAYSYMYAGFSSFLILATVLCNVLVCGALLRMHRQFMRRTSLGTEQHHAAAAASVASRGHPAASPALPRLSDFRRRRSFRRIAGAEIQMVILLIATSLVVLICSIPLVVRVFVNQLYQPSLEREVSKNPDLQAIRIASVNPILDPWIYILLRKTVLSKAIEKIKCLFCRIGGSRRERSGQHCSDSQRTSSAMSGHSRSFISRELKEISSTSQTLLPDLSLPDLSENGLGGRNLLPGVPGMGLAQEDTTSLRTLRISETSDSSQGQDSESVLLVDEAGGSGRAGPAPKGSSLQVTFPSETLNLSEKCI

Mesocricetus auratus = organism: Mesocricetus auratus; assay: Inhibition of syrian hamster KATP at 10 uM relative to control
[29] = Fraction unbound in rat plasma at 5 uM after 4 hrs by equilibrium dialysis based LC/MS/MS analysis; type: ADME, cell-free
[30] = biological target: Adenosine receptor A3 (Homo sapiens) (UniProt P0DMS8); assay: Inhibition of human adenosine A3 receptor at 10 uM relative to control
Chain of Adenosine receptor A3 (Homo sapiens) (P0DMS8 whole entry): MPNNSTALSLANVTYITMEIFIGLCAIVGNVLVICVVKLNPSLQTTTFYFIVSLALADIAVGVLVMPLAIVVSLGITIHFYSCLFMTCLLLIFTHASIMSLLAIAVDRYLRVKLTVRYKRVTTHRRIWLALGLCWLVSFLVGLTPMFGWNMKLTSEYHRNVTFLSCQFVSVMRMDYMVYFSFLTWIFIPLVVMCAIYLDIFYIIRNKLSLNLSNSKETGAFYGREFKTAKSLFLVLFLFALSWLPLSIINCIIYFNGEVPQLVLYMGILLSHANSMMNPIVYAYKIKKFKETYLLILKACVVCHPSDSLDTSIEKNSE

[31] = Drug uptake in Harlan CD-1 mouse brain at 3 mg/kg, ip by LC/MS-MS analysis; type: ADME, organism-based; conditions: in vivo, read-out: Drug uptake
[32] = biological target: 5-hydroxytryptamine receptor 2B (Homo sapiens) (UniProt P41595); assay: Inhibition of human 5-HT2B receptor at 10 uM relative to control
Chain of 5-hydroxytryptamine receptor 2B (Homo sapiens) (P41595 whole entry): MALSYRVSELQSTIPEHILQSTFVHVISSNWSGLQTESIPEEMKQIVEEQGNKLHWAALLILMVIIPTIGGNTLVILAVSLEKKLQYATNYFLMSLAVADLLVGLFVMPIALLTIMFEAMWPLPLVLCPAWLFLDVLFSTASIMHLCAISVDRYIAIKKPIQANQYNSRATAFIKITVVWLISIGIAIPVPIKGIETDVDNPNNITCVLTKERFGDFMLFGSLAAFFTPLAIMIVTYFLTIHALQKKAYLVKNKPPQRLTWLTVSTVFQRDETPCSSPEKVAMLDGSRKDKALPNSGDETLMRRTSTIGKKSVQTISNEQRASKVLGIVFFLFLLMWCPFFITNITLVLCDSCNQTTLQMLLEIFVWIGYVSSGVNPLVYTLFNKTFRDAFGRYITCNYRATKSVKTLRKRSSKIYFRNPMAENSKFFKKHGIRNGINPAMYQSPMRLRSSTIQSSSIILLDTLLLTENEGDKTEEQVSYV

[33] = biological target: Metabotropic glutamate receptor 3 (Rattus norvegicus) (UniProt P31422); assay: as §1, with “mGlu3” for “mGlu2”, “TREX” for “HEK293”, “mobilization by measuring minimum glutamate response” for “mobilization”, “2.6” for “1.9”, “assay relative to glutamate” for “assay”; type: functional, cell-based
[34] = biological target: D(3) dopamine receptor (Homo sapiens) (UniProt P35462); assay: Inhibition of human dopamine D3 receptor at 10 uM relative to control
[35] = biological target: L-type calcium channel, benzodiazepine site (Rattus norvegicus, UniProt P22002+P27732+Q02485); assay: Inhibition of rat L-type calcium channel benzodiazepine site at 10 uM relative to control; type: protein assay
[36] = Fraction unbound in human plasma at 5 uM after 4 hrs by equilibrium dialysis based LC/MS/MS analysis; type: ADME, cell-free
[37] = Fraction unbound in mouse plasma at 5 uM after 4 hrs by equilibrium dialysis based LC/MS/MS analysis; type: ADME, cell-free
[38] = Kinetic solubility of the compound in PBS at pH 7.4; type: physicochemical; conditions: read-out: Kinetic_solubility

## C[C@@H](COc1ccn(-c2ccc(F)cc2)c(=O)c1)Oc1ccccc1
[1]
  Kp: 1.15
Mus musculus [2]
  minimal effective dose: 3 mg/kg
[3]
  inhibition: > 50%
[4]
  inhibition: > 50%
[5]
  inhibition: > 50%
[6]
  inhibition: > 50%
[7]
  inhibition: > 50%
[8]
  inhibition: > 50%
Mus musculus [9]
  Activity: Active
Cytochrome P450 2D6
  IC50: > 30 µM
[10]
  inhibition: inactive
Rattus norvegicus [11]
  inhibition: > 50%
[12]
  inhibition: > 50%
Mus musculus [13]
  inhibition: > 50%
[14]
  inhibition: > 50%
[15]
  inhibition: > 50%
[16]
  inhibition: > 50%
[17]
  IC50: > 30 µM
[18]
  inhibition: > 50%
Cytochrome P450 2C9
  IC50: > 30 µM
Rattus norvegicus [19]
  inhibition: > 50%
[20]
  Kp: 1.2
[21]
  inhibition: > 50%
[22]
  inhibition: > 50%
[23]
  inhibition: > 50%
[24]
  inhibition: > 50%
Rattus norvegicus [25]
  inhibition: > 50%
Rattus norvegicus [26]
  inhibition: > 50%
[27]
  inhibition: > 50%
[28]
  inhibition: > 50%
Mesocricetus auratus
  inhibition: > 50%
[29]
  fraction unbound at 4 h, 5 µM: 0.18
[30]
  inhibition: > 50%
[31]
  concentration: 1200 nM
[32]
  inhibition: > 50%
[33]
  Emin: 3.33%
[34]
  inhibition: > 50%
[35]
  inhibition at 10 µM: > 50%
[36]
  fraction unbound at 4 h, 5 µM: 0.18
[37]
  fu: 0.18
[38]
  solubility kinetic: 98 µM (≈ 33.3 µg/mL)

— ChEMBL document CHEMBL4130451, “Design and Synthesis of N-Aryl Phenoxyethoxy Pyridinones as Highly Selective and CNS Penetrant mGlu3 NAMs” (ACS Med Chem Lett, 2017)
